{"source": "patent US10933093B2", "about": "“Compositions and methods of treating a T cell mediated disorder” (CASE WESTERN RESERVE UNIVERSITY, priority 2009, dated 2021)", "molecules": {"B1": {"name": "C5a: Murine C5a from Cell Sciences, Inc (protein, UniProt P06684 679-755, looked up)", "C5a anaphylatoxin": "NLHLLRQKIEEQAAKYKHSVPKKCCYDGARVNFYETCEERVARVTIGPLCIRAFNECCTIANKIRKESPHKPVQLGR", "modifications": "C5a anaphylatoxin", "notes": "Murine C5a from Cell Sciences, Inc"}}, "key": {"[1]": {"test_system": "anti-CD3/CD28 stimulated CD4^+ cells", "experiment": "qPCR of complement and FoxP3 mRNA in anti-CD3/CD28 stimulated CD4+ cells", "assay_type": "cell-based, C57BL/6 mice", "conditions": "for FoxP3 mRNA transcription: anti-CD3/28 stimulated naive CD4+ cells, C5a 100 ng/ml, 1 hr; for transcription of complement genes (complement mRNA): qPCR", "method": "FIGS. 3(A-I) illustrate graphs showing: A) 1×10^6 CD62L^hiCD25^−CD4^+ cells from WT or C3aR^−/−C5aR^−/− mice were incubated with anti-CD3/CD28 Dynabead activation beads, 5 ng/ml rhIL-2, and 1×10^5 CD11c^+ WT DCs for 3 days. The CD4^+ cell and DC partners were sorted, after which the DCs were assayed for B7 family members (*P<0.01; **P<0.03; ***P=0.07) and the CD4^+ cells were assayed for B7 coinhibitory counter-receptors by flow. B) 1×10^6 CD62L^hiCD25^−CD4^+ cells from WT mice were incubated with anti-CD3/CD28 Dynabead activation beads, 5 ng/ml rhIL-2, and 1×10^5 CD11c^+ WT DCs for 3 days±10 nM C3aR-A/C5aR-A or ±5 ng/ml rhTGF-fβ1. The CD4^+ cell and DC partners were sorted, after which the cells were assayed as in (A; *P<0.01 C3aR-A/C5aR-A vs. TGF-β1). C) 1×10^6 CD62L^hiCD25^− CD4^+ cells from WT or C3aR^−/−C5aR^−/− were incubated with anti-CD3/CD28 Dynabead activation beads, 5 ng/ml rhIL-2, and 1×10^5 CD11c^+ WT DCs for 3 days in the presence of blocking anti-CTLA-4, anti-PD-1, or anti-ICOS-L Abs and percent FoxP3^+ cells assayed by flow cytometry. D) 1×10^6 CD62L^hiCD25^− CD4^+ cells from WT, ICOS^−/−, or PD-1^−/− were incubated with anti-CD3/CD28 Dynabead activation beads, 5 ng/ml rhIL-2, and […] CD11c^+ WT or PD-L1^−/− DCs for 3 days in the presence of blocking anti-CTLA-4, anti-PD-1, or anti-ICOS-L Abs and percent FoxP3^+ cells assayed by flow cytometry. E) Anti-CD3/CD28 stimulated CD4^+ cells were treated with TGF-β1 or buffer and complement mRNA transcripts were assayed by qPCR. F-H) 1×10^4 CD62L^hiCD25^− CD4^+ cells from C57BL/6 mice were incubated with anti-CD3/CD28 Dynabeads and 5 ng/ml rhIL-2 for 3 days in the presence of TGF-β, TGF-β+IL-6, or IL-6 after which cells were assayed for (F) C3 mRNA expression by qPCR, (G) C3 and C5a generation by ELSIA, and (H) C3aR and C5aR surface expression by flow cytometry. I) C57BL/6 CD4^+ T cells were incubated for 1 hr with anti-CD3/CD28±100 ng/ml C5a and FoxP3 mRNA was quantitated by qPCR.\nFor C3aR/C5aR signaling to be absent, local complement production by interacting DCs and CD4^+ cells must not occur or be suppressed. […] As a first test of this, we incubated anti-CD3/CD28 stimulated CD4^+ cells in the presence and absence of TGF-β1. […] To test how IL-6 affects CD4^+ cell complement production, we added IL-6 to naive CD4^+ cells. […]\n[…] for 5 min at 20° C. using Trizol (Invitrogen, Carlsbad, Calif.) according to the manufacturer. When C3aR and C5aR mRNAs were analyzed, preparations were treated with DNase I (standard protocol) to remove genomic DNA. cDNAs were synthesized by incubating 20 μl of mRNAs in Sprint PowerScript Single Shots (Clontech, Mountain View, Calif.). […]"}, "[2]": {"test_system": "DC-CD4^+ cell C3a/C5a production", "experiment": "C3a/C5a generation by ELISA", "assay_type": "cell-based, C57BL/6 mice", "conditions": "3 days", "method": "(§1) FIGS. 3(A-I) illustrate graphs showing: A) 1×10^6 CD62L^hiCD25^−CD4^+ cells from WT or C3aR^−/−C5aR^−/− mice were incubated with anti-CD3/CD28 Dynabead activation beads, 5 ng/ml rhIL-2, and 1×10^5 CD11c^+ WT DCs for 3 days. The CD4^+ cell and DC partners were sorted, after which the DCs were assayed for B7 family members (*P<0.01; **P<0.03; ***P=0.07) and the CD4^+ cells were assayed for B7 coinhibitory counter-receptors by flow. B) 1×10^6 CD62L^hiCD25^−CD4^+ cells from WT mice were incubated with anti-CD3/CD28 Dynabead activation beads, 5 ng/ml rhIL-2, and 1×10^5 CD11c^+ WT DCs for 3 days±10 nM C3aR-A/C5aR-A or ±5 ng/ml rhTGF-fβ1. The CD4^+ cell and DC partners were sorted, after which the cells were assayed as in (A; *P<0.01 C3aR-A/C5aR-A vs. TGF-β1). […] I) C57BL/6 CD4^+ T cells were incubated for 1 hr with anti-CD3/CD28±100 ng/ml C5a and FoxP3 mRNA was quantitated by qPCR. […]\nFor C5a, C3a, IL-2, IL-10, and IL-6, capture and biotinylated detection Ab pairs were purchased from BD Biosciences. […] Reactions were terminated using 1N H2SO4 and plates were read using a SpectraMax M2 fluorimeter. • Induction and Evaluation of EAE"}, "C3aR/C5aR expression": {"test_system": "C3aR/C5aR expression", "experiment": "C3aR and C5aR surface expression by flow cytometry", "assay_type": "cell-based, C57BL/6 mice", "conditions": "3 days", "method": "as §1, with “TGF-β1). C) 1×10^6 CD62L^hiCD25^− CD4^+ cells from WT or C3aR^−/−C5aR^−/− were incubated with anti-CD3/CD28 Dynabead activation beads, 5 ng/ml rhIL-2, and 1×10^5 CD11c^+ WT DCs for 3 days in the presence of blocking anti-CTLA-4, anti-PD-1, or anti-ICOS-L Abs and percent FoxP3^+ cells assayed by flow cytometry.” for “TGF-β1).”"}, "naive CD4^+ cells": {"test_system": "naive CD4^+ cells", "experiment": "FoxP3+ iTreg induction from naive CD4+ cells stimulated with anti-CD3, IL-2 and DCs (flow cytometry)", "assay_type": "cell-based, mice"}, "iTregs": {"test_system": "iTregs", "experiment": "Costimulatory molecule expression of iTregs by flow cytometry", "assay_type": "cell-based, mice", "conditions": "higher", "method": "as §1, with “TGF-β1). C) 1×10^6 CD62L^hiCD25^− CD4^+ cells from WT or C3aR^−/−C5aR^−/− were incubated with anti-CD3/CD28 Dynabead activation beads, 5 ng/ml rhIL-2, and 1×10^5 CD11c^+ WT DCs for 3 days in the presence of blocking anti-CTLA-4, anti-PD-1, or anti-ICOS-L Abs and percent FoxP3^+ cells assayed by flow cytometry.” for “TGF-β1).”"}, "[3]": {"test_system": "human CD45RA^+CD25^−CD4^+ cells", "experiment": "Human iTreg preparation and human Treg suppression assay", "assay_type": "cell-based", "method": "FIGS. 5(A-G) illustrate graphs showing, A-C) EAE was induced in FoxP3-GFP knockin mice and 10 days after disease onset, CD4 cells were isolated from spleens and lymph nodes and sorted on GFP. 4×10^6 GFP negative cells were adoptively transferred into Rag2^−/− mice. The mice were subsequently injected with 1×10^6 FoxP3-GFP positive cells or PBS after which A) weight change, B) clinical scores, and C) percent FoxP3^+ cells were assayed. D-E) EAE was induced in WT and C3aR^−/−C5aR^−/− mice and at day 12 post disease induction draining LN cells were harvested and assayed for D) % FoxP3^+ cells, and E) suppressive capacity as above. F) EAE was induced in FoxP3-GFP knockin mice and 10 days after induction mice were treated with buffer control, C3aR-A/C5aR-A, or ex vivo generated FoxP3^+ Tregs (from FoxP3-GFP mice with C3aR-A/C5aR-A), after which […]) clinical scores were assessed. G) CD25^+ cells from 1×10^6 CD25^−CD4^+ Human T cells isolated by flow cytometry and incubated with soluble anti-CD3, IL-2, and autologous DCs in the presence and absence of TGF-β, C3aR-A/C5aR-A, or anti-C3a/C5a mAbs for 3 days were incubated with CFSE labeled autologous naive T cells, anti-CD3, and autologous DCs and percent dividers determined 3 days thereafter by CFSE dilution. […]"}, "[4]": {"test_system": "CellTracker Red-labeled OT-II cells", "experiment": "Murine Treg suppression assay", "assay_type": "cell-based, mice", "conditions": "cells from stimulated naive C3−/−C5−/− CD4+ cells, C5a added"}}, "data": [{"molecule": "IL-6: cytokine IL-6 added to naive CD4+ cells", "values": [{"measurement": "FoxP3 mRNA transcription", "setting": "[1]", "result": "inhibited"}, {"measurement": "transcription of complement genes (complement mRNA)", "setting": "[1]", "result": "upregulated"}, {"measurement": "DC-CD4+ cell C3a/C5a production", "setting": "[2]", "result": "evoked"}, {"measurement": "C3aR/C5aR expression", "setting": "C3aR/C5aR expression", "result": "upregulated"}]}, {"molecule": "TGF-β1: human TGF-β1 from Prospec Bio", "values": [{"measurement": "FoxP3+ cell induction", "setting": "naive CD4^+ cells; anti-CD3/CD28 stimulated CD4+ cells, added TGF-β1", "result": "induced FoxP3^+ cells"}, {"measurement": "costimulatory molecule expression of iTregs generated with exogenous TGF-β1 relative to those generated by C3aR/C5aR antagonism", "setting": "iTregs", "result": "3-6 fold"}, {"measurement": "transcription of complement genes (complement mRNA)", "setting": "[1]", "result": "abolished"}, {"measurement": "DC-CD4+ cell C3a/C5a production", "setting": "[2]", "result": "did neither"}, {"measurement": "C3aR/C5aR expression", "setting": "C3aR/C5aR expression", "result": "did neither"}, {"measurement": "costimulatory molecules on human iTregs (phenotyping)", "setting": "[3]; human iTregs", "result": "showed costimulatory molecules"}, {"measurement": "suppression by CD25+ (FoxP3+) cells of CFSE-labeled CD25−CD4+ cells", "setting": "[3]; human, equal number of sorted CD25+ cells, DCs, anti-CD3, same individual", "result": "little effect"}]}, {"molecule": "B1", "values": [{"measurement": "iTreg induction", "setting": "naive CD4^+ cells; naive C3−/−C5−/− CD4+ cells stimulated with anti-CD3, DCs and IL-2, C5a added", "result": "blocked"}, {"measurement": "suppressor function", "setting": "[4]", "result": "blocked"}, {"measurement": "FoxP3 mRNA transcription", "setting": "[1]", "result": "inhibited"}]}]}
